# Target: T1, Dimer of Gag-Pol polyprotein [489-587] (Human immunodeficiency virus 1, UniProt P12497)
# T1 construct: 489-587
# Test: Protease Inhibition Assay
# Conditions: pH 6; 37 °C
# Description: IC50 values were obtained by assaying the enzyme against the synthetic substrate peptide KQGTVSFNFPQIT, which was tritiated at the proline residue, and then was coupled via its N-terminal lysine to an Affi-gel bead mixture. The assay was performed in 96-well microtiter filtration plates. The plates containing HIV protease and radiolabeled substrate beads were incubated with or without inhibitor. After filtration, radioactivity was measured using an LKB 1205 Microbeta liquid scintillation counter. IC50 determinations were performed in duplicate at each concentration with mean values used for data analysis.
row,Structure (SMILES),IC50 [µM]
1,"CCC(C)C(CO)NC(=O)[C@@H]1N[C@@H]([C@H](NC(=O)Cc2ccccc2)C(=O)NCc2ccccc2)SC1(C)C (stereo partly drawn) [(2R,4S)-2-[(R)-(benzylcarbamoyl)(1-phenylacetamido)methyl]-N-(1-hydroxy-3-methylpentan-2-yl)-5,5-dimethyl-1,3-thiazolidine-4-carboxamide]",> 0.54
2,"C[C@@H](Cc1ccccc1)NC(=O)[C@@H]1N[C@@H]([C@H](NC(=O)Cc2ccccc2)C(=O)NCc2ccccc2)SC1(C)C [(2R,4S)-2-[(R)-(benzylcarbamoyl)(1-phenylacetamido)methyl]-5,5-dimethyl-N-[(2S)-1-phenylpropan-2-yl]-1,3-thiazolidine-4-carboxamide]",> 180
3,"C[C@H](CO)NC(=O)[C@@H]1N[C@@H]([C@H](NC(=O)Cc2ccccc2)C(=O)NCc2ccccc2)SC1(C)C [(2R,4S)-2-[(R)-(benzylcarbamoyl)(1-phenylacetamido)methyl]-N-[(2R)-1-hydroxypropan-2-yl]-5,5-dimethyl-1,3-thiazolidine-4-carboxamide]",> 20
4,"CC1(C)S[C@H]([C@H](NC(=O)Cc2ccccc2)C(=O)NCc2ccccc2)N[C@H]1C(=O)N[C@H](CO)Cc1ccccc1 [(2R,4S)-2-[(R)-(benzylcarbamoyl)(1-phenylacetamido)methyl]-N-[(2S)-1-hydroxy-3-phenylpropan-2-yl]-5,5-dimethyl-1,3-thiazolidine-4-carboxamide]",> 170
5,"CC(C)[C@H](CO)NC(=O)[C@@H]1N[C@@H]([C@H](NC(=O)Cc2ccccc2)C(=O)NCc2ccccc2)SC1(C)C [(2R,4S)-2-[(R)-(benzylcarbamoyl)(1-phenylacetamido)methyl]-N-[(2R)-1-hydroxy-3-methylbutan-2-yl]-5,5-dimethyl-1,3-thiazolidine-4-carboxamide]",> 4.7
6,"C[C@H](Cc1ccccc1)NC(=O)[C@@H]1N[C@@H]([C@H](NC(=O)Cc2ccccc2)C(=O)NCc2ccccc2)SC1(C)C [(2R,4S)-2-[(R)-(benzylcarbamoyl)(1-phenylacetamido)methyl]-5,5-dimethyl-N-[(2R)-1-phenylpropan-2-yl]-1,3-thiazolidine-4-carboxamide]",> 180
7,"CC1(C)S[C@H]([C@H](NC(=O)Cc2ccccc2)C(=O)NCc2ccccc2)N[C@H]1C(N)=O [[2R-[2a(R*),4B]]-4-Carbamoyl-5,5-dimethyl-a-[(phenylacetyl)amino]-N-(phenylmethyl)-2-thiazolidineacetamide]",> 230
8,"CC1(C)S[C@H]([C@H](NC(=O)Cc2ccccc2)C(=O)NCc2ccccc2)N[C@H]1C(=O)NCCNC(=O)[C@@H]1N[C@@H]([C@H](NC(=O)Cc2ccccc2)C(=O)NCc2ccccc2)SC1(C)C [(2R,4S)-2-[(R)-(benzylcarbamoyl)(1-phenylacetamido)methyl]-N-(2-{[(2R,4S)-2-[(R)-(benzylcarbamoyl)(1-phenylacetamido)methyl]-5,5-dimethyl-1,3-thiazolidin-4-yl]formamido}ethyl)-5,5-dimethyl-1,3-thiazolidine-4-carboxamide]",0.0009
9,"CC(C)C[C@H](CO)NC(=O)[C@@H]1N[C@@H]([C@H](NC(=O)Cc2ccccc2)C(=O)NCc2ccccc2)SC1(C)C [(2R,4S)-2-[(R)-(benzylcarbamoyl)(1-phenylacetamido)methyl]-N-[(2R)-1-hydroxy-4-methylpentan-2-yl]-5,5-dimethyl-1,3-thiazolidine-4-carboxamide]",> 4.6

# From BindingDB's records for doi:10.1021/jm00073a012 (Glaxo Group Research, 1993)
